From US11072585B2 (PharmAkea, Inc., priority 2015, dated 2021) come the findings set out here.

Where a name gives a salt, the structure may show the parent alone.

Sequence of human LOXL2 (Q9Y4K0 26-774): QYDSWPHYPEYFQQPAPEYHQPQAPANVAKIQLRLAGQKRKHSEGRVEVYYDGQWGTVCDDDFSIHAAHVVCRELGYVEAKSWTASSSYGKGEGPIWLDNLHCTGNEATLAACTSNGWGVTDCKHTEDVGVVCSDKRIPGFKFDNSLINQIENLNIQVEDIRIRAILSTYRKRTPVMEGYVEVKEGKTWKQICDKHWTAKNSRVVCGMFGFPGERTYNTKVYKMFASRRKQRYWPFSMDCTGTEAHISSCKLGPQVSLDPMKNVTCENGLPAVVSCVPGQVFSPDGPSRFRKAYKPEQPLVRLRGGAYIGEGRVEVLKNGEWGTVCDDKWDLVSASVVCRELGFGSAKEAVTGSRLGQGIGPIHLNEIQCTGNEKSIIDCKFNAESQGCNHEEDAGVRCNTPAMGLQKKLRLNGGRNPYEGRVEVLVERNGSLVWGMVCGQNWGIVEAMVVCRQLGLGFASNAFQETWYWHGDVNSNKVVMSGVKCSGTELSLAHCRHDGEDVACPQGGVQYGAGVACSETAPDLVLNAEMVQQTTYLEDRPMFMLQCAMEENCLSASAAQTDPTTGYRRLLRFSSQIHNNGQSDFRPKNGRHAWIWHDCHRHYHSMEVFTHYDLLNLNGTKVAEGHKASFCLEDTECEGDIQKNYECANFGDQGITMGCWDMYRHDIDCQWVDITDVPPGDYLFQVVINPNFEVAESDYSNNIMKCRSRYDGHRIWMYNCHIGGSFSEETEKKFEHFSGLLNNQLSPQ

This test has as its target human LOXL2 (Homo sapiens (Human), UniProt Q9Y4K0). Kind of test: Human LOXL2 amine oxidase activity assay (Amplex Red). The format is biochemical. The note with it: concentrated conditioned media from CHO cells stably expressing human LOXL2; 2 h at 37° C. with compound; DAP substrate. How it is done: Example B-1: Human LOXL2 Amine Oxidase Activity Assay
LOXL2 amine oxidase activity is evaluated by measuring Amplex Red fluorescence using 10-20× concentrated conditioned media from CHO cells stably expressing human LOXL2. To assay for amine oxidase activity, 10 μL of the concentrated conditioned media is incubated with 2 μL of test compound in DMSO and 73 μL Assay Buffer (50 mM Borate Buffer, pH8) for 2 h at 37° C. After the 2 h incubation, 5 ul of 10 mM 1,5-Diaminopentane (DAP) diluted in Assay Buffer and 10 μl of Amplex Red Mix (8.5 μl Assay Buffer+0.5 μl of 10 mM Amplex Red+1 μl of 500 U/ml Horseradish Peroxidase) are added and the plate mixed and immediately placed on the FlexStaion for fluorescence measurements. Fluorescence is read in kinetic mode every 2 min for 1 hour at excitation=544 and emission=590. The amine oxidase activity is calculated from the slope of the linear portion of the curve.
`NCc1cc(NCc2cccc(C(=O)N3CC[C@H](O)C3)c2)nc(C(F)(F)F)c1` [Compound 1-237, (S)-(3-(((4-(Aminomethyl)-6-(trifluoromethyl)pyridin-2-yl)amino)methyl)phenyl)(3-hydroxypyrrolidin-1-yl)methanone hydrochloride]: the IC50 (usually the point on the concentration scale where inhibition reaches its midpoint) was in the range of 300 to 1000 nM.

With `NCc1cc(Oc2cccc(C(=O)NCc3ccc(F)cc3)c2)nc(C(F)(F)F)c1` [Compound 1-9, 3-((4-(Aminomethyl)-6-(trifluoromethyl)pyridin-2-yl)oxy)-N-(4-fluorobenzyl)benzamide hydrochloride], the IC50 was less than 300 nM.

In the case of `NCc1cc(Oc2cccc(C(=O)N[C@H]3CCC[C@H]3O)c2)nc(C(F)(F)F)c1` [Compound 1-210, 3-((4-(Aminomethyl)-6-(trifluoromethyl)pyridin-2-yl)oxy)-N-((1S,2R)-2-hydroxycyclopentyl)benzamide hydrochloride], the IC50 was less than 300 nM.

Consider `NCc1cc(OC2CCN(C(=O)Nc3ccccc3)CC2)nc(C(F)(F)F)c1` [Compound 1-41, 4-((4-(Aminomethyl)-6-(trifluoromethyl)pyridin-2-yl)oxy)-N-phenylpiperidine-1-carboxamide trifluoroacetate], for which the IC50 is 300 to 1000 nM.

As for `CCc1ccc(NC(=O)c2cccc(Oc3cc(CN)cc(C(F)(F)F)n3)c2)cc1` [Compound 1-246, 3-((4-(Aminomethyl)-6-(trifluoromethyl)pyridin-2-yl)oxy)-N-(4-ethylphenyl)benzamide hydrochloride], the IC50 was less than 300 nM.

Regarding `NCc1cc(Oc2cccc3[nH]ccc23)nc(C(F)(F)F)c1` [Compound 1-58, (2-((1H-Indol-4-yl)oxy)-6-(trifluoromethyl)pyridin-4-yl)methanamine], the IC50 was less than 300 nM.

Consider `NCc1cc(NC(=O)c2cccc(C(=O)N3CC[C@H](O)C3)c2)nc(C(F)(F)F)c1` [Compound 1-241, (S)—N-(4-(Aminomethyl)-6-(trifluoromethyl)pyridin-2-yl)-3-(3-hydroxypyrrolidine-1-carbonyl)benzamide trifluoroacetate], for which the IC50 was less than 300 nM.

On to “N′-(4-(Aminomethyl)-6-(trifluoromethyl)pyridin-2-yl)-N^3-phenylisophthalamide trifluoroacetate [Compound 1-240]”, for which the IC50 is less than 300 nM.

`Cc1cc(=O)n(Cc2cc(CN)cc(C(F)(F)F)n2)c(=O)n1CCO` [Compound 1-135, 3-((4-(Aminomethyl)-6-(trifluoromethyl)pyridin-2-yl)methyl)-1-(2-hydroxyethyl)-6-methylpyrimidine-2,4(1H,3H)-dione hydrochloride]: the IC50 is greater than 1000 nM.

With `N#CC1CN(C(=O)c2cccc(Oc3cc(CN)cc(C(F)(F)F)n3)c2)C1` [Compound 1-199, 1-(3-((4-(Aminomethyl)-6-(trifluoromethyl)pyridin-2-yl)oxy)benzoyl)azetidine-3-carbonitrile trifluoroacetate], the IC50 was less than 300 nM.

Take `NCc1cc(Oc2cccc(C(=O)Nc3ncco3)c2)nc(C(F)(F)F)c1` [Compound 1-227, 3-((4-(Aminomethyl)-6-(trifluoromethyl)pyridin-2-yl)oxy)-N-(oxazol-2-yl)benzamide hydrochloride]: the IC50 was less than 300 nM.

On to `NCc1cc(Oc2cccc(C(=O)N3CC4(CCOCC4)C3)c2)nc(C(F)(F)F)c1` [Compound 1-207, (3-((4-(Aminomethyl)-6-(trifluoromethyl)pyridin-2-yl)oxy)phenyl)(7-oxa-2-azaspiro[3.5]nonan-2-yl)methanone hydrochloride], for which the IC50 is less than 300 nM.

On to `COC(=O)c1cccc(C(=O)Nc2cc(CN)cc(C(F)(F)F)n2)c1` [Compound 1-238, Methyl 3-((4-(aminomethyl)-6-(trifluoromethyl)pyridin-2-yl)carbamoyl)benzoate trifluoroacetate], for which the IC50 was less than 300 nM.

For the molecule `COc1cc(Oc2cc(CN)cc(C(F)(F)F)n2)cc(C(=O)N2C[C@@H](O)[C@H](F)C2)c1` (racemic) [Compound 1-232, Racemic-trans-(3-((4-(aminomethyl)-6-(trifluoromethyl)pyridin-2-yl)oxy)-5-methoxyphenyl)(3-fluoro-4-hydroxypyrrolidin-1-yl)methanone hydrochloride], the IC50 lay within 300 to 1000 nM.

With `NCc1cc(Oc2cccc(C(=O)N3CC(n4cccn4)C3)c2)nc(C(F)(F)F)c1` [Compound 1-12, (3-(1H-Pyrazol-1-yl)azetidin-1-yl)(3-((4-(aminomethyl)-6-(trifluoromethyl)pyridin-2-yl)oxy)phenyl)methanone trifluoroacetate], the IC50 was less than 300 nM.

`NCc1cc(O[C@H]2CCCN(C(=O)Cc3ccccc3)C2)nc(C(F)(F)F)c1` [Compound 1-46, (S)-1-(3-((4-(Aminomethyl)-6-(trifluoromethyl)pyridin-2-yl)oxy)piperidin-1-yl)-2-phenylethanone trifluoroacetate]: the IC50 is less than 300 nM.

Consider `NCc1cc(Oc2cccc(C(=O)N3CCC[C@@H]3C(=O)O)c2)nc(C(F)(F)F)c1` [Compound 1-25, (R)-1-(3-((4-(Aminomethyl)-6-(trifluoromethyl)pyridin-2-yl)oxy)benzoyl)pyrrolidine-2-carboxylic acid hydrochloride], for which the IC50 lay within 300 to 1000 nM.

For the molecule `NCc1cc(Oc2cc(O)cc(C(=O)N3C[C@@H](O)[C@H](F)C3)c2)nc(C(F)(F)F)c1` (racemic) [Compound 1-230, Racemic-trans-(3-((4-(aminomethyl)-6-(trifluoromethyl)pyridin-2-yl)oxy)-5-hydroxyphenyl)(3-fluoro-4-hydroxypyrrolidin-1-yl)methanone hydrochloride], the IC50 was less than 300 nM.

On to `CN(C)[C@@H]1CN(C(=O)c2cccc(Oc3cc(CN)cc(C(F)(F)F)n3)c2)C[C@H]1O` (racemic) [Compound 1-23, Racemic-trans-(3-((4-(aminomethyl)-6-(trifluoromethyl)pyridin-2-yl)oxy)phenyl)(-3-(dimethylamino)-4-hydroxypyrrolidin-1-yl)methanone hydrochloride], for which the IC50 was less than 300 nM.

Regarding `Cn1cc(-n2ccc3c(Oc4cc(CN)cc(C(F)(F)F)n4)cccc32)cn1` [Compound 1-37, (2-((1-(1-Methyl-1H-pyrazol-4-yl)-1H-indol-4-yl)oxy)-6-(trifluoromethyl)pyridin-4-yl) methanamine hydrochloride], the IC50 is less than 300 nM.

For the molecule `CC(=O)N1CCC2(CC(Oc3cc(CN)cc(C(F)(F)F)n3)C2)C1` (stereo not shown) [Compound 1-244, 1-(2-((4-(Aminomethyl)-6-(trifluoromethyl)pyridin-2-yl)oxy)-6-azaspiro[3.4]octan-6-yl)ethanone hydrochloride], the IC50 fell in the range of 300 to 1000 nM.

For `NCc1cc(Oc2cccc(C(=O)N3CC[C@H](O)C3)c2)nc(C(F)(F)F)c1` [Compound 1-17, (S)-(3-((4-(Aminomethyl)-6-(trifluoromethyl)pyridin-2-yl)oxy)phenyl)(3-hydroxypyrrolidin-1-yl)methanone hydrochloride], the IC50 is less than 300 nM.

Take `NCc1cc(Oc2cccc3c2CCC(=O)N3CCO)nc(C(F)(F)F)c1` [Compound 1-60, 5-((4-(Aminomethyl)-6-(trifluoromethyl)pyridin-2-yl)oxy)-1-(2-hydroxyethyl)-3,4-dihydroquinolin-2(1H)-one hydrochloride]: the IC50 fell in the range of 300 to 1000 nM.

In the case of `NCc1cc(Oc2cncc(C(=O)N3CC[C@@H](N)C3)c2)nc(C(F)(F)F)c1` [Compound 1-54, (R)-(5-((4-(Aminomethyl)-6-(trifluoromethyl)pyridin-2-yl)oxy)pyridin-3-yl)(3-aminopyrrolidin-1-yl)methanone dihydrochloride], the IC50 is less than 300 nM.

For the molecule `NCc1cc(Oc2cccc(C(=O)N3CCC[C@H]3C(=O)O)c2)nc(C(F)(F)F)c1` [Compound 1-24, (S)-1-(3-((4-(Aminomethyl)-6-(trifluoromethyl)pyridin-2-yl)oxy)benzoyl)pyrrolidine-2-carboxylic acid hydrochloride], the IC50 is greater than 1000 nM.

Take `NCc1cc(Oc2cccc(COc3ccccc3)c2)nc(C(F)(F)F)c1` [Compound 1-4, (2-(3-(Phenoxymethyl)phenoxy)-6-(trifluoromethyl)pyridin-4-yl)methanamine trifluoroacetate]: the IC50 was less than 300 nM.

In the case of `NCc1cc(Oc2cccc(C(=O)N3C[C@@H](F)[C@@H](O)C3)c2)nc(C(F)(F)F)c1` (racemic) [Compound 1-211, Racemic-cis-(3-((4-(aminomethyl)-6-(trifluoromethyl)pyridin-2-yl)oxy)phenyl)(3-fluoro-4-hydroxypyrrolidin-1-yl)methanone hydrochloride], the IC50 was less than 300 nM.

As to `NCc1cc(Oc2cccc(C(=O)NCC3CCC(=O)N3)c2)nc(C(F)(F)F)c1` (racemic) [Compound 1-29, Racemic-3-((4-(aminomethyl)-6-(trifluoromethyl)pyridin-2-yl)oxy)-N-((5-oxopyrrolidin-2-yl)methyl)benzamide hydrochloride], the concentration for half-maximal inhibition (IC50) is less than 300 nM.

For the molecule `NCc1cc(-n2ccccc2=O)nc(C(F)(F)F)c1` [Compound 1-161, 4′-(Aminomethyl)-6′-(trifluoromethyl)-2H-[1,2′-bipyridin]-2-one hydrochloride], the IC50 is greater than 1000 nM.

On to `CS(=O)(=O)OC1CN(C(=O)c2cccc(Oc3cc(CN)cc(C(F)(F)F)n3)c2)CC1F` (stereo not shown) [Compound 1-214, hydrochloride], for which the IC50 was less than 300 nM.

As to `NCc1cc(Oc2cccc(-c3ccccc3)c2)nc(C(F)(F)F)c1` [Compound 1-2, (2-([1,1′-Biphenyl]-3-yloxy)-6-(trifluoromethyl)pyridin-4-yl)methanamine trifluoroacetate], the IC50 was less than 300 nM.
